inhibition, Ki and Ratio Ki data for 27 compounds are collected here from ChEMBL document CHEMBL4619756, “Design, synthesis and biological evaluation of N-hydroxy-aminobenzyloxyarylamide analogues as novel selective κ opioid receptor antagonists” (Bioorg Med Chem Lett, 2020).

SMILES strings stand for the structures. pKi: −log10 of the molar value.

What all share (format): cell-based
Experiment [1] deals with T1, Delta-type opioid receptor (Homo sapiens, UniProt P41143). The experiment can be described thus: Displacement of [3H]-DPDPE from human delta opiod receptor expressed in human HEK293 cells at 1 uM incubated for 60 mins by liquid scintillation counting method relative to control. In general terms: Loss of bound radioactivity is the signal in a displacement assay; it reports binding, not function.
T1 sequence (P41143 whole entry): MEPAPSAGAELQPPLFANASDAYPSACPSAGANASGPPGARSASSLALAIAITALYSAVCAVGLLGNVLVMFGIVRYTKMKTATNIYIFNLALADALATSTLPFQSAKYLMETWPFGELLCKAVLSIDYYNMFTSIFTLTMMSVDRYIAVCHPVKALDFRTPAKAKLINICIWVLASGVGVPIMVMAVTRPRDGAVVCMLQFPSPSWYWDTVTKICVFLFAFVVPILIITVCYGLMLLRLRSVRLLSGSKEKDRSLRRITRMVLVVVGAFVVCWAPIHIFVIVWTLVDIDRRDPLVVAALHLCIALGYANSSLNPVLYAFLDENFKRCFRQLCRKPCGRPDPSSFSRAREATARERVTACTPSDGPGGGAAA

Experiment [2] deals with T2, Mu-type opioid receptor (Homo sapiens, UniProt P35372). Put plainly: Displacement of [3H]-DAMGO from human mu opiod receptor expressed in CHO cells at 1 uM incubated for 60 mins by liquid scintillation counting method relative to control.
T2 sequence (P35372 whole entry): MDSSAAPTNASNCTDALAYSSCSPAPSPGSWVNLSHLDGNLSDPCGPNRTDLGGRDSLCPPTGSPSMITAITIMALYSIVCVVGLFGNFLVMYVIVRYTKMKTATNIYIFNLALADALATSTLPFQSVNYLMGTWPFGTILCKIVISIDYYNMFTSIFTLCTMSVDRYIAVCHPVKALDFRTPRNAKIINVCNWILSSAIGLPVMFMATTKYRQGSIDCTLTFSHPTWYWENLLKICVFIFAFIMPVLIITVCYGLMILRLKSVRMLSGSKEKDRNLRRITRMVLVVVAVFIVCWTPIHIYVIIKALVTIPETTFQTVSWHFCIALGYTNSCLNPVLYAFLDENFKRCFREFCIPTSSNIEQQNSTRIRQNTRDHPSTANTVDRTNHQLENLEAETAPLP
The target in experiment [3] is T3, Kappa-type opioid receptor (Homo sapiens, UniProt P41145). Put plainly: Displacement of [3H]-U69593 from human kappa opiod receptor expressed in CHO cells at 10 uM incubated for 60 mins by liquid scintillation counting method relative to control.
T3 sequence (P41145 whole entry): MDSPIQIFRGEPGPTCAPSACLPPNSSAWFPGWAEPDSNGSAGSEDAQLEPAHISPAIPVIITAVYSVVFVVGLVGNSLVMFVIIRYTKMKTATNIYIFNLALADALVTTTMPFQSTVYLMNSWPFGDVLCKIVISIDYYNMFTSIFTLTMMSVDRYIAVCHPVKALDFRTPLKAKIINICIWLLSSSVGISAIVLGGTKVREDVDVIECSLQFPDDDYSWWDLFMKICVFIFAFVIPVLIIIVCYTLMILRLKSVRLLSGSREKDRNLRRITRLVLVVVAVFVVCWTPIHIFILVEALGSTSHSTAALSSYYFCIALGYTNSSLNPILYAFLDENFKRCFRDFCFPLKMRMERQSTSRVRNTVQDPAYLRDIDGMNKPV
Experiment [4] deals with T3, Kappa-type opioid receptor. Put plainly: Displacement of [3H]-U69593 from human kappa opiod receptor expressed in CHO cells at 1 uM incubated for 60 mins by liquid scintillation counting method relative to control.
The target of experiment [5] is T2, Mu-type opioid receptor. Put plainly: Displacement of [3H]-DAMGO from human mu opiod receptor expressed in CHO cells at 10 uM incubated for 60 mins by liquid scintillation counting method relative to control.
Experiment [6] deals with T1, Delta-type opioid receptor. Put plainly: Displacement of [3H]-DPDPE from human delta opiod receptor expressed in human HEK293 cells at 10 uM incubated for 60 mins by liquid scintillation counting method relative to control.
Experiment [7] concerns the target T3, Kappa-type opioid receptor. The experiment can be described thus: Displacement of [3H]-U69593 from human kappa opiod receptor expressed in CHO cells incubated for 60 mins by liquid scintillation counting method.
Experiment [8] deals with T1, Delta-type opioid receptor. Put plainly: Displacement of [3H]-DPDPE from human delta opiod receptor expressed in human HEK293 cells incubated for 60 mins by liquid scintillation counting method.
The species named for experiment [9] is Homo sapiens. The experiment can be described thus: Selectivity index, ratio of Ki for human mu opiod receptor expressed in CHO cells to Ki for human kappa opiod receptor expressed in CHO cells.
The species named for experiment [10] is Homo sapiens. Put plainly: Selectivity index, ratio of Ki for human delta opiod receptor expressed […] for human kappa opiod receptor expressed in CHO cells.
In experiment [11] the target is T2, Mu-type opioid receptor. Put plainly: Displacement of [3H]-DAMGO from human mu opiod receptor expressed in CHO cells incubated for 60 mins by liquid scintillation counting method.

For the compound `Cc1cc(C)cc(C2CCCN2Cc2ccc(Oc3ccc(C(=O)NO)cc3)cc2)c1` (stereo not given), the inhibition in [1] amounted to 0%; at Mu-type opioid receptor [2], 10.7%; in experiment [3], 84.7%; in experiment [4] it was 39.5%; at Mu-type opioid receptor [5], 36%; in [6], 6.5%.

Regarding `COc1ccc(C2CCCN2Cc2ccc(Oc3ccc4c(=O)[nH]oc4c3F)cc2)cc1` (stereo not given), the inhibition in experiment [1] was 23.7%; on Mu-type opioid receptor [2] it was 19.2%; in experiment [3], 19.1%; in experiment [4], 0%; on Mu-type opioid receptor [5], 41%; in [6], 49.7%.

As to `O=C(NO)c1ccc(Oc2ccc(CN3CCCC3c3cccc(F)c3)cc2)c(F)c1` (stereo not given), the inhibition in [1] is 16.8%; at Mu-type opioid receptor [2], 25.8%; in experiment [3], 80.6%; in [4] it was 45.8%; at Mu-type opioid receptor [5], 73.2%; in experiment [6], 28.4%. Besides, the negative-log Ki (pKi) in experiment [7] was 6.30; in experiment [8] it was less than 5.00; at Mu-type opioid receptor [11], 5.55. For the same compound, the values for the Ratio Ki in the experiment listed under Homo sapiens [9] and in the experiment listed under Homo sapiens [10] were 4.6 and more than 20, respectively.

Regarding `COc1cccc(C2CCCN2Cc2ccc(Oc3ccc(C(=O)NO)cc3F)cc2)c1` (stereo not given), the inhibition was 22.6% at Mu-type opioid receptor [2], 80.4% in experiment [3], 42.5% in [4] and 64.4% on Mu-type opioid receptor [5].

Take `COc1ccc(C2CCCN2Cc2ccc(Oc3ccc4c(=O)[nH]oc4c3Cl)cc2)cc1` (stereo not given): the inhibition was 18% in [1]; 17.7% on Mu-type opioid receptor [2]; 39.9% in experiment [3]; 18.8% in experiment [4]; 32.2% on Mu-type opioid receptor [5]; 39.3% in experiment [6].

Regarding `O=c1[nH]oc2c(Cl)c(Oc3ccc(CN4CCCC4c4ccc(Cl)cc4)cc3)ccc12` (stereo not given), the inhibition came out at 23.9% in experiment [1]; 21.7% at Mu-type opioid receptor [2]; 0% in experiment [3]; 0% in experiment [4]; 41.1% on Mu-type opioid receptor [5]; 52.2% in experiment [6].

For `COc1cccc(C2CCCN2Cc2ccc(Oc3ccc4c(=O)[nH]oc4c3Cl)cc2)c1` (stereo not given), the inhibition in experiment [1] worked out at 19.7%; at Mu-type opioid receptor [2] it was 0%; in experiment [3] it was 0%; in [4], 0%; on Mu-type opioid receptor [5], 0%; in experiment [6] it was 60.6%.

Regarding `O=C(NO)c1ccc(Oc2ccc(CN3CCCC3c3cccc(Cl)c3)cc2)c(F)c1` (stereo not given), the inhibition in experiment [1] was found to be 0%; at Mu-type opioid receptor [2], 16.5%; in experiment [3], 54.7%; in experiment [4] it was 30.9%; on Mu-type opioid receptor [5], 57.3%; in [6] it was 26.4%.

In the case of `COc1cccc(C2CCCN2Cc2ccc(Oc3ccc4c(=O)[nH]oc4c3F)cc2)c1` (stereo not given), the inhibition in [1] stood at 0%; on Mu-type opioid receptor [2] it was 0%; in experiment [3], 29%; in experiment [4], 9.7%; on Mu-type opioid receptor [5] it was 6.2%; in experiment [6] it was 28.4%.

As for `O=C(NO)c1ccc(Oc2ccc(CN3CCCC3c3ccc(Cl)cc3)cc2)c(F)c1` (stereo not given), the inhibition is 25.6% in experiment [1]; 0% on Mu-type opioid receptor [2]; 74.3% in experiment [3]; 46.1% in experiment [4]; 25.8% on Mu-type opioid receptor [5]; 34.4% in experiment [6].

As for `COc1cc(CN2CCCC2c2cc(C)cc(C)c2)ccc1Oc1ccc2c(=O)[nH]oc2c1` (stereo not given), the inhibition amounted to 11.6% in [1]; 14.3% on Mu-type opioid receptor [2]; 73.2% in experiment [3]; 38.4% in experiment [4]; 59.2% on Mu-type opioid receptor [5]; 49.1% in experiment [6].

Consider `Cc1cc(C)cc(C2CCCN2Cc2ccc(Oc3ccc4c(=O)[nH]oc4c3)c(Cl)c2)c1` (stereo not given), for which the inhibition worked out at 0% in experiment [1]; 0% at Mu-type opioid receptor [2]; 69.8% in experiment [3]; 23.8% in experiment [4]; 9.8% at Mu-type opioid receptor [5]; 16.9% in experiment [6].

In the case of `O=c1[nH]oc2c(F)c(Oc3ccc(CN4CCCC4c4cccc(Cl)c4)cc3)ccc12` (stereo not given), the inhibition in experiment [1] was 0%; on Mu-type opioid receptor [2], 0%; in [3], 57.2%; in experiment [4] it was 20%; at Mu-type opioid receptor [5] it was 0%; in experiment [6] it was 38.2%.

In the case of `Cc1cc(C)cc(C2CCCN2Cc2ccc(Oc3ccc4c(=O)[nH]oc4c3F)cc2)c1` (stereo not given), the inhibition in experiment [1] was determined as 0%; on Mu-type opioid receptor [2] it was 0%; in [3], 36.4%; in experiment [4], 0%; on Mu-type opioid receptor [5], 21.1%; in [6], 33.3%.

Consider `COc1ccc(C2CCCN2Cc2ccc(Oc3ccc4c(=O)[nH]oc4c3)cc2)cc1` (stereo not given), for which the inhibition was 33.3% in experiment [1]; 42.2% on Mu-type opioid receptor [2]; 66.9% in [3]; 55.7% in experiment [4]; 50.6% at Mu-type opioid receptor [5]; 40.7% in experiment [6].

On to `Cc1cc(C)cc(C2CCCN2Cc2ccc(Oc3ccc4c(=O)[nH]oc4c3F)c(Cl)c2)c1` (stereo not given), for which the inhibition in experiment [1] was found to be 18%; at Mu-type opioid receptor [2] it was 21.4%; in experiment [3] it was 47.4%; in experiment [4], 20.1%; on Mu-type opioid receptor [5] it was 45.7%; in [6], 32.9%.

Consider `O=c1[nH]oc2c(F)c(Oc3ccc(CN4CCCC4c4cccc(F)c4)cc3)ccc12` (stereo not given), for which the inhibition in experiment [1] came out at 20.7%; at Mu-type opioid receptor [2], 0%; in [3] it was 24.8%; in experiment [4] it was 0%; at Mu-type opioid receptor [5], 0%; in experiment [6] it was 52.5%.

Consider `Cc1cc(C)cc(C2CCCN2Cc2ccc(Oc3ccc4c(=O)[nH]oc4c3F)c(F)c2)c1` (stereo not given), for which the inhibition in experiment [1] is 17.2%; on Mu-type opioid receptor [2], 9.4%; in [3] it was 56.9%; in experiment [4], 26.7%; at Mu-type opioid receptor [5] it was 37.3%; in experiment [6] it was 49.3%.

For the compound `Cc1cc(C)cc(C2CCCN2Cc2ccc(Oc3ccc4c(=O)[nH]oc4c3Cl)cc2)c1` (stereo not given), the inhibition was 0% in experiment [1]; 0% at Mu-type opioid receptor [2]; 11.6% in experiment [3]; 0% in [4]; 0% on Mu-type opioid receptor [5]; 22.3% in [6].

For `O=c1[nH]oc2c(Cl)c(Oc3ccc(CN4CCCC4c4cccc(F)c4)cc3)ccc12` (stereo not given), the inhibition in experiment [1] turned out to be 8.5%; on Mu-type opioid receptor [2], 0%; in [3], 16.2%; in experiment [4], 0%; at Mu-type opioid receptor [5] it was 0%; in [6] it was 37.9%.

`Cc1cc(C)cc(C2CCCN2Cc2ccc(Oc3ccc4c(=O)[nH]oc4c3)c(F)c2)c1` (stereo not given): the inhibition in experiment [1] stood at 0%; on Mu-type opioid receptor [2] it was 0%; in [3], 85.2%; in experiment [4], 37.2%; on Mu-type opioid receptor [5], 9.5%; in experiment [6], 10.7%.

Regarding `COc1ccc(C2CCCN2Cc2ccc(Oc3ccc(C(=O)NO)cc3F)cc2)cc1` (stereo not given), the inhibition in [1] was 6.2%; at Mu-type opioid receptor [2], 11%; in experiment [3], 77.4%; in [4], 34.9%; at Mu-type opioid receptor [5], 43.1%; in experiment [6] it was 15.8%.

On to `O=c1[nH]oc2c(F)c(Oc3ccc(CN4CCCC4c4ccc(Cl)cc4)cc3)ccc12` (stereo not given), for which the inhibition in experiment [1] stood at 0%; on Mu-type opioid receptor [2], 22.5%; in experiment [3], 39.2%; in [4] it was 0%; on Mu-type opioid receptor [5], 35.8%; in [6] it was 9.6%.

As for `O=c1[nH]oc2cc(Oc3ccc(CN4CCCC4c4ccc(Cl)cc4)cc3)ccc12` (stereo not given), the inhibition in experiment [1] stood at 15.7%; on Mu-type opioid receptor [2], 47%; in [3] it was 83.5%; in [4] it was 57.6%; on Mu-type opioid receptor [5] it was 54.5%; in experiment [6], 35.9%.

Turning to `COc1cccc(C2CCCN2Cc2ccc(Oc3ccc(C(=O)NO)cc3)cc2)c1` (stereo not given), the inhibition in [1] amounted to 0%; on Mu-type opioid receptor [2] it was 13.5%; in experiment [3], 84.3%; in [4], 33.8%; at Mu-type opioid receptor [5], 31.6%; in experiment [6] it was 7.1%.

Turning to `O=c1[nH]oc2c(Cl)c(Oc3ccc(CN4CCCC4c4cccc(Cl)c4)cc3)ccc12` (stereo not given), the inhibition in experiment [1] worked out at 0%; at Mu-type opioid receptor [2], 19.2%; in [3], 45.4%; in [4], 0%; at Mu-type opioid receptor [5], 32.5%; in [6], 44.9%.

Regarding `O=C(NO)c1ccc(Oc2ccc(CN3CCCC3c3ccccc3)cc2)cc1` (stereo not given), the inhibition in experiment [1] stood at 0%; on Mu-type opioid receptor [2] it was 21.9%; in experiment [3], 85.3%; in experiment [4] it was 51.6%; on Mu-type opioid receptor [5], 45.9%; in experiment [6], 13.8%.

The inhibition is the change of the read-out against control, counted positive when it falls. Low values mean little suppression, high ones strong suppression. Broadly, the pKi is the negative decadic logarithm of the Ki, by convention in mol/L. Low readings indicate a high Ki, high ones a low Ki.
